One test concerns tail flick. As to the kind of experiment: Mouse tail flick analgesic testing (TF). In kind it is in vivo, mice. As to conditions: for ANALGESIC ACTIVITY ED50, TF / ED50: tail flick, mice; for ED50: Mus musculus. The source says: (§1) Tests Using Thermal Nociceptive Stimuli
(b) Mouse Tail Flick Analgesic Testing
Tail flick testing in mice is modified after D'Amour and Smith, J. Pharmacol. Exp. Ther., 72, 74-79 (1941), using controlled high intensity heat applied to the tail. Each mouse is placed in a snug-fitting metal cylinder, with the tail protruding through one end. This cylinder is arranged so that the tail lies flat over a concealed heat lamp. At the onset of testing, an aluminum flag over the lamp is drawn back allowing the light beam to pass through the slit and focus onto the end of the tail. A timer is simultaneously activated. The latency of a sudden flick of the tail is ascertained. Untreated mice usually react within 3-4 seconds after exposure to the lamp. The end point for protection is 10 seconds. Each mouse is tested at 0.5 and 2 hours after treatment with morphine and the test compound. Morphine has an MPE50 of 3.2-5.6 mg./kg. (s.c.).
(§2) Results of the above tests are recorded as percent maximum possible effect (% MPE). The % MPE of each group is statistically compared to the % MPE of the standard and the predrug control values. The % MPE is calculated as follows: [formula]
(§3) By means of the above procedures, the analgesic activity of several compounds of this invention and of certain prior art compounds are determined. The data are reported in terms of maximum possible effect.
(§4) PBQ=phenylbenzoquinone-induced writhing; TF=tail flick; HP=hot plate; RTC=rat tail clamp; FJ=flinch jump; and TI=tail immersion assays.

The test system of the next test is hot plate. Put plainly: Mouse hot plate analgesic testing (HP). The test is classed as in vivo, mice. As to conditions: for ANALGESIC ACTIVITY ED50, HP / ED50: hot plate, mice; for ED50: Mus musculus. The method, then: as §1
(a) Mouse Hot Plate Analgesic Testing
The method used is modified after Woolfe and MacDonald, J. Pharmacol. Exp. Ther., 80, 300-307 (1944). A controlled heat stimulus is applied to the feet of mice on a 1/8" thick aluminum plate. A 250 watt reflector infrared heat lamp is placed under the bottom of the aluminum plate. A thermal regulator, connected to thermistors on the plate surface, programs the heat lamp to maintain a constant temperature of 57° C. Each mouse is dropped into a glass cylinder (61/2" diameter) resting on the hot plate, and timing is begun when the animal's feet tough the plate. The mouse is observed at 0.5 and 2 hours after treatment when the test compound for the first "flicking"movements of one or both hind feet, or until 10 seconds elapse without such movements. Morphine has an MPE50 =4-5.6 mg./kg. (s.c.).
as §2, §3, §4

Test [1] relates to phenylbenzoquinone-induced writhing. As to the kind of experiment: Suppression of phenylbenzoquinone irritant-induced writhing (PBQ). The test is classed as in vivo, Carworth Farms CF-1 mice. The settings on record: mice; for ED50: Mus musculus, read-out: ANALGESIC ACTIVITY ED50, PBQ. The method, then:
Test Using Chemical Nociceptive Stimuli
Suppression of Phenylbenzoquinone Irritant-Induced Writhing
Groups of 5 Carworth Farms CF-1 mice are pretreated subcutaneously or orally with saline, morphine, codeine or the test compound. Twenty minutes (if treated subcutaneously) or fifty minutes (if treated orally) later, each group is treated with intraperitoneal injection of phenylbenzoquinone, an irritant known to produce abdominal contractions. The mice are observed for 5 minutes for the presence or absence of writhing starting 5 minutes after the injection of the irritant. MPE50 's of the drug pretreatments in blocking writhing are ascertained.
as §2, §3, §4

A further test has as its system tail immersion. Put plainly: Tail immersion procedure (TI). The test is classed as in vivo, male albino mice, Charles River CD-1 strain. As to conditions: Mus musculus, 0.5 h, read-out: ANALGESIC ACTIVITY ED50, TI 1/2 hour. The method, then: (c) Tail Immersion Procedure
The method is a modification of the receptacle procedure developed by Benbasset, et al., Arch. int. Pharmacodyn., 122, 434 (1959). Male albino mice (19-21 g.) of the Charles River CD-1 strain are weighed and marked for identification. Five animals are normally used in each drug treatment group with each animal serving as its own control. For general screening purposes, new test agents are first administered at a dose of 56 mg./kg. intraperitoneally or subcutaneously, delivered in a volume of 10 ml./kg. Preceding drug treatment and at 0.5 and 2 hours post drug, each animal is placed in the cylinder. Each cylinder is provided with holes to allow for adequate ventilation and is closed by a round nylon plug through which the animal's tail protrudes. The cylinder is held in an upright position and the tail is completely immersed in the constant temperature waterbath (56° C.). The endpoint for each trial is an energetic jerk or twitch of the tail coupled with a motor response. In some cases, the endpoint may be less vigorous post drug. To prevent undue tissue damage, the trial is terminated and the tail removed from the waterbath within 10 seconds. The response latency is recorded in seconds to the nearest 0.5 second. A vehicle control and a standard of known potency are tested concurrently with screening candidates. If the activity of a test agent has not returned to baseline values at the 2-hour testing point, response latencies are determined at 4 and 6 hours. A final measurement is made at 24 hours if activity is still observed at the end of the test day.
as §2, §3, §4

The subject of the next test is rat tail clamp. Put plainly: Haffner tail pinch procedure / rat tail clamp (RTC). The test is classed as in vivo, male albino rats, Charles River (Sprague-Dawley) CD strain. The settings on record: for ED50: 1 hour, read-out: ANALGESIC ACTIVITY ED50, RTC 1 hour. The method, then: Tests Using Pressure Nociceptive Stimuli
Effect on the Haffner Tail Pinch Procedure
A modification of the procedure of Haffner, Experimentelle Prufung Schmerzstillender. Mittel Deutch Med. Wschr., 55, 731-732 (1929) is used to ascertain the effects of the test compound on aggressive attacking responses elicited by a stimulus pinching the tail. Male albino rats (50-60 b.) of the Charles River (Sprague-Dawley) CD strain are used. Prior to drug treatment, and again at 0.5, 1, 2 and 3 hours after treatment, a Johns Hopkins 2.5-inch "bulldog" clamp is clamped onto the root of the rat's tail. The endpoint at each trial is clear attacking and biting behavior directed toward the offending stimulus, with the latency for attack recorded in seconds. The clamp is removed in 30 seconds if attacking has not yet occurred, and the latency of response is recorded as 30 seconds. Morphine is active at 17.8 mg./kg. (i.p.).
as §2, §3, §4

In a further test the test system is flinch jump. As to the kind of experiment: Flinch-jump test (FJ). In kind it is in vivo, male albino rats, Charles River (Sprague-Dawley) CD strain. As to conditions: Rattus norvegicus, rats, 2 hours, read-out: ANALGESIC ACTIVITY ED50, FJ 2 hours.
Source text: Tests Using Electrical Nociceptive Stimuli
A modification of the flinch-jump procedure of Tenen, Psychopharmacologia, 12, 278-285 (1968) is used for determining pain thresholds. Male albino rats (175-200 g.) of the Charles River (Sprague-Dawley) CD strain are used. Prior to receiving the drug, the feet of each rat are dipped into a 20% glycerol/saline solution. The animals are then placed in a chamber and presented with a series of 1-second shocks to the feet which are delivered in increasing intensity at 30-second intervals. These intensities are 0.26, 0.39, 0.52, 0.78, 1.05, 1.31, 1.58, 1.86, 2.13, 2.42, 2.72 and 3.04 mA. Each animal's behavior is rated for the presence of (a) flinch, (b) squeak and (c) jump or rapid forward movement at shock onset. Single upward series of shock intensities are presented to each rat just prior to, and at 0.5, 2, 4 and 24 hours subsequent to drug treatment.
as §2, §3, §4

Molecules are shown by their SMILES. Where two headings read alike, the source gives them in different places.

As to `CC(CCCc1ccccc1)c1cc(O)c2c(c1)OC(C)C1CCC(O)CC21` (racemic) [CH(CH3)(CH2)3C6 H5^(a), dl-6aα-7,8,9,10,10a-hexahydro-1-hydroxy-6α-methyl-3-(1-methyl-4-phenylbutyl)-6H-dibenzo[b,d]pyran-9β-ol], the “ANALGESIC ACTIVITY ED50, TF” value with tail flick is 1.6 mg/kg. Moreover, in the test on hot plate, the “ANALGESIC ACTIVITY ED50, HP” value worked out at 5.6 mg/kg. In test [1], the “ANALGESIC ACTIVITY ED50, PBQ” value was found to be 0.94 mg/kg.

Regarding `CCCCCc1cc(O)c2c(c1)OC(C)(C)[C@@H]1CC[C@@H](O)C[C@@H]21` (relative stereo) [C5 H11, reference compound], the ED50 with tail flick was 3.2 mg/kg; with tail immersion (tail immersion, mice, 1/2 hour), 13 mg/kg; with hot plate it was not below 17.8 mg/kg; in test [1] it was 0.68 mg/kg; in the test on rat tail clamp, 58 mg/kg; with flinch jump, 8 mg/kg.

`CC(CCCc1ccncc1)c1cc(O)c2c(c1)OC(C)(C)[C@@H]1CC[C@@H](O)C[C@@H]21` (relative stereo) [CH2 (CH3)(CH2)34-pyridyl, dl-6aβ,7,8,9,10,10aα-hexahydro-1-hydroxy-6,6-dimethyl-3-[1-methyl-4-(4-pyridyl)butyl]-6H-dibenzo[b,d]pyran-9β-ol]: the ED50 in test [1] was 0.17 mg/kg.

As to `CC(CCCCc1ccccc1)c1cc(O)c2c(c1)OC(C)(C)[C@@H]1CC[C@@H](O)C[C@@H]21` (relative stereo) [CH(CH3 (CH2)4C6 H5, dl-6aβ,7,8,9,10,10aα-hexahydro-1-hydroxy-6,6-dimethyl-3-(1-methyl-5-phenylpentyl)-6H-dibenzo[b,d]pyran-9β-ol], the ED50 is 2.8 mg/kg with tail flick; 3.5 mg/kg with tail immersion (tail immersion, mice, 1/2 hour); 3.9 mg/kg with hot plate; 1.33 mg/kg in test [1]; less than 3.2 mg/kg with rat tail clamp; 0.42 mg/kg with flinch jump.

For the molecule `CC(CCc1ccccc1)c1cc(O)c2c(c1)OC(C)(C)[C@@H]1CC[C@@H](O)C[C@@H]21` (relative stereo) [CH(CH3)(CH2)2C6 H5, dl-6aβ,7,8,9,10,10aα-hexahydro-1-hydroxy-6,6-dimethyl-3-(1-methyl-3-phenylpropyl)-6H-dibenzo[b,d]pyran-9β-ol], the values for the ED50 (in the test on tail flick; in the test with hot plate; in test [1]) were more than 10 mg/kg, more than 10 mg/kg and 5 mg/kg, respectively.

Regarding `CC(CCOc1ccccc1)c1cc(O)c2c(c1)OC(C)(C)[C@@H]1CC[C@@H](O)C[C@@H]21` (relative stereo) [CH(CH3)(CH2)2OC6 H5, dl-6aβ,7,8,9,10,10aα-hexahydro-1-hydroxy-6,6-dimethyl-3-(1-methyl-3-phenoxypropyl)-6H-dibenzo[b,d]pyran-9β-ol], the ED50 in test [1] lay in the range of 0.1 to 1 mg/kg.

Turning to `CC(CCCc1ccccc1)c1cc(O)c2c(c1)OC(C)(C)[C@@H]1CC[C@@H](O)C[C@@H]21` (relative stereo) [CH(CH3)(CH2)3C6 H5, dl-6aβ,7,8,9,10,10aα-Hexahydro-1-hydroxy-6,6-dimethyl-3-(1-methyl-4-phenylbutyl)-6H-dibenzo[b,d]pyran-9β-ol], the ED50 in the test on tail flick turned out to be 0.32 mg/kg; in the test on tail immersion (tail immersion, mice, 1/2 hour), 0.3 mg/kg; in the test on hot plate, 0.75 mg/kg; in test [1], 0.062 mg/kg; with rat tail clamp, 1.8 mg/kg; with flinch jump, 0.11 mg/kg.

`CC(CCCOc1ccccc1)c1cc(O)c2c(c1)OC(C)(C)[C@@H]1CC[C@@H](O)C[C@@H]21` (relative stereo) [CH(CH3)(CH2)3OC6 H5, dl-6aβ,7,8,9,10,10aα-hexahydro-1-hydroxy-6,6-dimethyl-3-(1-methyl-4-phenoxybutyl)-6H-dibenzo[b,d]pyran-9β-ol]: the ED50 in the test on tail flick is 1.2 mg/kg; in the test with hot plate it was approximately 10 mg/kg; in test [1], 0.39 mg/kg.

`CCCCCC(C)C(C)c1cc(O)c2c(c1)OC(C)(C)[C@@H]1CC[C@@H](O)C[C@@H]21` (relative stereo) [CH(CH3)CH(CH3)C5 H11, reference compound]: the ED50 in the test on tail flick turned out to be 0.35 mg/kg; in the test with tail immersion (tail immersion, mice, 1/2 hour), 0.38 mg/kg; with hot plate, 1.1 mg/kg; in test [1], 0.1 mg/kg; in the test with rat tail clamp, 0.44 mg/kg; in the test on flinch jump, 0.11 mg/kg.

`CC1(C)Oc2cc(OC3CCCCC3)cc(O)c2[C@@H]2C[C@H](O)CC[C@H]21` (relative stereo) [OC6 H11, dl-6aβ,7,8,9,10,10aα-1-hydroxy-6,6-dimethyl-3-cyclohexyloxy-6H-dibenzo[b,d]pyran-9β-ol]: the values for the ED50 (in the test on tail flick; in the test on hot plate; in test [1]) were more than 10 mg/kg, more than 10 mg/kg and 5.3 mg/kg, respectively.

For the molecule `CC(CCc1ccccc1)Oc1cc(O)c2c(c1)OC(C)(C)[C@@H]1CC[C@@H](O)C[C@@H]21` (relative stereo) [OCH(CH3)(CH2)2C6 H5, dl-6aβ,7,8,9,10,10aα-hexahydro-1-hydroxy-6,6-dimethyl-3-(1-methyl-3-phenylpropoxy)-6H-dibenzo[b,d]pyran-9β-ol], the ED50 with tail flick was 1.3 mg/kg; in the test with hot plate it was approximately 3.2 mg/kg; in test [1], 0.21 mg/kg.

Molecule `CN1CC[C@]23c4c5ccc(O)c4O[C@H]2[C@@H](O)C=C[C@H]3[C@H]1C5` [morphine, reference compound] registered an MPE50 tail flick in the test on tail flick (s.c.) of 3.2 to 5.6 mg/kg. Moreover, in the test with tail flick, the “ANALGESIC ACTIVITY ED50, TF” value came out at 3.8 mg/kg. The ED50 in the test on tail immersion was 4 mg/kg. For the same molecule, the “ANALGESIC ACTIVITY ED50, HP” value in the test on hot plate was 4.7 mg/kg. For the same molecule, the MPE50 hot plate in the test with hot plate (s.c., 57° C. plate) lay in the range of 4 to 5.6 mg/kg. The “ANALGESIC ACTIVITY ED50, PBQ” value in test [1] is 0.8 mg/kg. Further, the “ANALGESIC ACTIVITY ED50, RTC (1/2 hr.)” value with rat tail clamp (1/2 hr. (morphine only), 30 min) stood at 2.9 mg/kg.
